Source: patent publication US10723750B2, “Sphingamide compounds and methods for binding iNKT cells” (La Jolla Institute for Allergy and Immunology, priority 2015, dated 2020)

Key:
[1] = test system: murine iNKT hybridoma cells; test: iNKT hybridoma activation, APC-free assay with recombinant mCD1d (IL-2 ELISA); assay type: cell-based, mouse; conditions: FIG. 5A/5D
Experimental: (§1) First, the present sphingamide compounds were tested to determine whether they activated iNKT cell hybridomas when the sphingamide was presented to the iNKT cell TCR by (a) an antigen presenting-cell (APC) free assay which uses recombinant mCD1d, (b) an A20 B-cell (an antigen presenting cell) expressing the wild-type (WT) mCD1d, or (c) an A20 B-cell expressing a tail-deleted mCD1d. The tail deleted mCD1d lacks the “YQDI” amino acid sorting motif required for routing CD1d to endosomes (for example, amino acid residues 314-317 of SEQ ID NO: 2 would be missing).
(§2) For in vitro stimulation, murine iNKT hybridoma cells at 5×10^4 cells/well in 96-well plates were stimulated with the 10^5 cells/well glycolipid pulsed BMDCs in cDMEM for 4, 16 or 24 hours at 37° C. with 0.05 μg/ml, 0.1 μg/ml, 0.5 μg/ml, 1 μg/ml, 2 μg/ml, or 5 μg/ml of lipid, and levels of murine IL-2 secretion were determined by ELISA.
The present sphingamide, or amide-lacking versions were tested to determine whether they activated iNKT cell hybridomas when the sphingamide was presented to the iNKT cell TCR by an antigen presenting-cell (APC) free assay which uses recombinant mCD1d. […]
For in vitro stimulation, murine iNKT hybridoma cells at 5×10^4 cells/well were added to the wells containing CD1d and incubated in the presence of 5% CO2 at 37° C. over night. Levels of murine IL-2 secretion were determined by ELISA.

[2] = test system: murine iNKT hybridoma cells; test: iNKT hybridoma activation, A20 B cells expressing wild-type mCD1d (IL-2 ELISA); assay type: cell-based, mouse; conditions: A20/mCD1d wt, FIG. 5B
Experimental: as §1, §2
(§3) Tail-deleted mCD1d cannot recycle back into the cell, as the binding site for a required lipid loading factor has been deleted. (see Jin et al., Immunity 2009, 30(6):888-898 for a discussion of the model).

[3] = test system: murine iNKT hybridoma cells; test: iNKT hybridoma activation, A20 B cells expressing tail-deleted mCD1d (IL-2 ELISA); assay type: cell-based, mouse; conditions: tail-deleted mCD1d A20 B cell, FIG. 5C
Experimental: as §1, §2, §3

[4] = cited from earlier work
[5] = test system: iNKT cells in C57BL/6 mice; test: In vivo activation of iNKT cells, serum cytokines by ELISA; set-up: species or system mouse
Vα24+ human NKT cells = test: Activation of human iNKT cells in vitro, GM-CSF release (sandwich ELISA); assay type: cell-based; conditions: glycolipid-pulsed PBMCs with Vα24+ human NKT cells, 24 h, FIG. 7
Excerpt: The isolation and expansion of human Vα24^+ NKT cell lines has been published previously (Rogers, P. R., Matsumoto, A., Naidenko, O., Kronenberg, M., Mikayama, T., and Kato, S. (2004) Expansion of human Vα24^+ NKT cells by repeated stimulation with KRN7000. J. Immunol. Methods 285, 197-214). Human donor peripheral blood mononuclear cells (PBMCs, 1-1.5×10^6/ml) were isolated and cultured in RPMI 1640 medium (Invitrogen) supplemented with 10% (v/v) FBS and 1% (v/v) Pen/Strep/glutamine (10,000 units of penicillin, 10 mg of streptomycin, 29.2 mg/ml L-glutamine; Invitrogen), and cultures were expanded by weekly re-stimulation with αGalCer-pulsed, irradiated PBMC and recombinant human IL-2.
PBMCs (1×10^5 per well) were pulsed with glycolipids, seeded in 96-well plates, and cultured in the presence of 5×10^4 Vα24^+ human NKT cells for 24 h. GM-CSF release was evaluated in a sandwich ELISA following the manufacturer's instructions (R&D Systems).

[6] = test system: murine iNKT hybridoma cells; test: Sphingamide competition with OCH in vitro, APC-free recombinant mCD1d (IL-2 ELISA); assay type: cell-based, mouse; conditions: JG168 1-20 ug/ml mixed with 1 ug/ml OCH, FIG. 8
Experimental: For in vitro stimulation, murine iNKT hybridoma cells at 5×10^4 cells/well in 96-well plates were incubated with CD1d (loaded with OCH and the competing sphingamide) and levels of iNKT cell activation was monitored by measuring murine IL-2 secretion by ELISA.

[7] = test system: iNKT cells in C57BL/6 mice; test: Sphingamide competition with OCH in vivo, serum IL-4 and IFN-γ; set-up: species or system mouse; conditions: FIG. 9
Experimental: Cytokine levels were measured from blood serum using ELISA after 4 hours (IL-4) and 16 hours (IFN-γ).

In the case of `CCCCCCCCCCCCCC[C@@H](O)[C@@H](O)[C@H](CO[C@H]1OC(CO)[C@H](O)C(O)C1O)NC(=O)CCCCCCC` (stereo partly drawn) [PBS-25], the “IL-2 secretion by iNKT hybridoma” value [1] is reported as “significant amount of IL-2”, the “IL-2 secretion by iNKT hybridoma” value [2] is reported as “significant amount of IL-2” and the “IL-2 secretion by iNKT hybridoma” value [3] is reported as “significant amount of IL-2”. For the same compound, the “solubility in aqueous solutions” value [4] was “readily soluble”.

For `CCCCCCCCCCCCCCCCCCCCCCCC(=O)N[C@@H](CO[C@H]1OC(CO)[C@H](O)C(O)C1O)[C@H](O)[C@H](O)CCCCC` (stereo partly drawn) [OCH], the “solubility in aqueous solutions” value [4] is listed as “poorly soluble”.

For `CCCCCCCCCCCCCCCCCCCCCCCCCC(=O)N[C@@H](CO[C@H]1O[C@H](CO)[C@H](O)[C@H](O)[C@H]1O)[C@H](O)[C@H](O)CCCCCCCCCCCCCC` [α-GalCer, N-[(2S,3S,4R)-3,4-Dihydroxy-1-[(2S,3R,4S,5R,6R)-3,4,5-trihydroxy-6-(hydroxymethyl)oxan-2-yl]oxyoctadecan-2-yl]hexacosanamide], the “IL-2 secretion by iNKT hybridoma” value [2] was “stimulated the secretion of IL-2”, the “IL-2 secretion by iNKT hybridoma” value [3] was “did not stimulate IL-2 production” and the “cytokines produced in vivo (IL-4 / IFN-γ)” value ([5]; 1 μg glycolipid injected i.v., FIG. 12) was “makes both”. For the same compound, the “serum IL-4” value ([5]; C57BL/6 mice, 5 μg glycolipid i.v., 4 hours) was “significant amounts”, the “serum IFN-γ” value ([5]; C57BL/6 mice, 5 μg glycolipid i.v., 16 hours) was “significant amounts” and the GM-CSF secretion (Vα24+ human NKT cells) was “significant secretion of GMCSF at all doses”. For the same compound, the “solubility in aqueous solutions” value [4] was “poorly soluble”.

With `CCCCCCCC(=O)N[C@@H](CO[C@H]1OC(CO)[C@H](O)C(O)[C@@H]1O)[C@H](O)[C@H](O)CCCC(=O)NCCCCCCc1ccccc1` (stereo partly drawn) [JG168] the “competition with OCH (IL-2 secretion)” value [6] was “No competition was observed”, the “activation of iNKT cells in vivo” value ([7]; 20 μg JG168 alone i.v.) was “did not activate iNKT cells in vivo” and the “competition with OCH (serum IL-4 and IFN-γ)” value ([7]; 1, 5 or 20 μg JG168 + 1 μg OCH i.v.) was “no competition was observed”.
